Where “and” joins values, the source holds several entries; their conditions need not be identical. Equal values may be shown once.
Columns and labels:
[1] = biological target: T1, mouse STING (Mus musculus, UniProt Q3TBT3); assay: ISRE reporter assay with STING co-transfection in HEK293T cells; format: cell-based
T1 sequence (Q3TBT3 1-378): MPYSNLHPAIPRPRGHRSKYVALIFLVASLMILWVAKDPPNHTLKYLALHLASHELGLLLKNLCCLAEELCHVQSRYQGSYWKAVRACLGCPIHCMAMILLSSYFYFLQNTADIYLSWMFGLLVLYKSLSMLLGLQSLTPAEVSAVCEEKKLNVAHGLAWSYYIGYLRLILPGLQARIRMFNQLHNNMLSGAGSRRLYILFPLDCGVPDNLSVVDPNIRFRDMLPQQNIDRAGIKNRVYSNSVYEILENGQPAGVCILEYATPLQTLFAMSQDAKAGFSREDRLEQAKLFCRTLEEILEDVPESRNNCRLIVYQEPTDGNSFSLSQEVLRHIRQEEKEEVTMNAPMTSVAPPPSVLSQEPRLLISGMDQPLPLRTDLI

[2] = biological target: human STING R95E (Homo sapiens, UniProt Q86WV6, R95E); assay: as above
[3] = biological target: human STING (WT) (Homo sapiens, UniProt Q86WV6); assay: as above; format: cell-based
[4] = system: BMDM, WT mSTING; assay: IP10 induction in bone marrow-derived macrophages; format: cell-based, mouse; details: 50μM, n=1

Sequence of human STING (WT) (Q86WV6 whole entry): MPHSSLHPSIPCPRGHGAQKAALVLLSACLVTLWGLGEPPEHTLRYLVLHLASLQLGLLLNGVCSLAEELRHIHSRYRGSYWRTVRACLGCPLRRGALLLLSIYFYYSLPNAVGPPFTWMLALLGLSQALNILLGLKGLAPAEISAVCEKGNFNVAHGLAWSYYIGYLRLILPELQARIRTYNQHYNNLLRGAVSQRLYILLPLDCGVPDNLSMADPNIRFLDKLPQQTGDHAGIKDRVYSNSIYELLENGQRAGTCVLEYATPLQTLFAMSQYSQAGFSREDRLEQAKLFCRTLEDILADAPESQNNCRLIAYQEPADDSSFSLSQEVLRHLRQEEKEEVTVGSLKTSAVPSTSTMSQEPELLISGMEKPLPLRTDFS
Sequence of human STING R95E (Q86WV6 whole entry R95E): as the sequence (Q86WV6 whole entry) above, with R95E counted along it

COc1cc(C(=O)O)ccc1NCc1ccc(C2(C(C)(C)C)OCC(C)(C)CO2)cc1 [NVS-STG2]
ISRE reporter activity, mean ([1]; mSTING WT, Log[μM] 0.3, Figure S1g): -5.609 | ISRE reporter activity, mean ([1]; mSTING WT, Log[μM] 1, Figure S1g): -12.1937 | ISRE reporter activity, mean ([1]; mSTING WT, Log[μM] 1.7, Figure S1g): -31.614 | ISRE reporter activity, mean ([1]; mSTING WT, Log[μM] -0.4, Figure S1g): -7.536 | ISRE reporter activity, mean ([1]; mSTING WT, Log[μM] -1.1, Figure S1g): -5.586 | ISRE reporter activity, mean ([1]; mSTING WT, Log[μM] -1.8, Figure S1g): -3.154 | ISRE reporter activity, mean ([1]; mSTING, Log[μM] 0.2): 0.9 | ISRE reporter activity, mean ([1]; mSTING, Log[μM] 0.5): 1 | ISRE reporter activity, mean ([1]; mSTING, Log[μM] 0.8): 1.1 | ISRE reporter activity, mean ([1]; mSTING, Log[μM] 1.1): 0.8 | ISRE reporter activity, mean ([1]; mSTING, Log[μM] 1.4): 0.9 | ISRE reporter activity, mean ([1]; mSTING, Log[μM] -0.1): 0.9 | ISRE reporter activity, mean ([1]; mSTING, Log[μM] -0.4): 1.1 | ISRE reporter activity, mean ([1]; mSTING, Log[μM] -0.7): 1 | ISRE reporter activity, mean ([1]; mSTING, Log[μM] -1): 1 | STING activation in words [2]: essentially irresponsive | ISRE reporter activity, mean ([3]; STING WT, Log[μM] 1.22185, Figure S1c and d): 17.6344 | ISRE reporter activity, mean ([3]; STING WT, Log[μM] 1.69897, Figure S1c and d): 5.278 | ISRE reporter activity, mean ([3]; WT, Log[μM] 0.3, Figure 3c): 91.1301 | ISRE reporter activity, mean ([3]; WT, Log[μM] 1, Figure 3c): 89.4692 | ISRE reporter activity, mean ([3]; WT, Log[μM] -0.4, Figure 3c): 17.8606 | ISRE reporter activity, mean ([3]; WT, Log[μM] -1.1, Figure 3c): 10.1153 | ISRE reporter activity, mean ([3]; WT, Log[μM] -1.8, Figure 3c): -0.2753 | ISRE reporter activity, mean ([3]; WT, Log[μM] -2.49, Figure 3c): -1.7095 | ISRE reporter activity, mean ([3]; WT, Log[μM] -3.19, Figure 3c): -1.3729 | ISRE reporter activity, mean ([3]; hSTING WT, Log[μM] 0.2): 21.1 and 30.1 | ISRE reporter activity, mean ([3]; hSTING WT, Log[μM] 0.5): 33.4 and 42.4 | ISRE reporter activity, mean ([3]; hSTING WT, Log[μM] 0.8): 39.5 and 52.4 | ISRE reporter activity, mean ([3]; hSTING WT, Log[μM] 1.1): 50.3 and 59.2 | ISRE reporter activity, mean ([3]; hSTING WT, Log[μM] 1.4): 53.6 and 53.1 | ISRE reporter activity, mean ([3]; hSTING WT, Log[μM] -1.3): 1.2 and 1.5 | STING activation in words ([3]; human STING): specifically activated human STING | IP10 [4]: 143 pg/mL

From publication PMC10907298 (Nature chemical biology, 2023)
